How the values were obtained:
MAP4K4 = tested on: MAP4K4
Procedure: (§1) All constructs were transfected into HEK293 cells using the LIPOFECTAMINE™ RNAiMAX reagent (Invitrogen Corp., Carlsbad, Calif.) according to manufacture's instructions. In brief, RNA was diluted to a 12× concentration and then combined with a 12× concentration of LIPOFECTAMINE™ RNAiMAX to complex. The RNA and transfection reagent were allowed to complex at room temperature for 20 minutes to yield a 6× concentration. While complexing, HEK293 cells were washed, trypsinized and counted. The cells were diluted to a concentration recommended by the manufacturer which was at 1×10^5 cells/ml. When RNA has completed complexing with the RNAiMAX transfection reagent, 20 μl of the complexes were added to the appropriate well of the 96-well plate in triplicate. Cells were added to each well (100 μl volume) to make the final cell count per well at 1×10^4 cells/well. The volume of cells diluted the 6× concentration of complex to 1× which was equal to 50, 25, or 10 nM. Cells were incubated for 48 hours under normal growth conditions. After 48 hour incubation, cells were lysed and gene silencing activity was measured using the Panomics […]™ assay which employs bDNA hybridization technology. The assay was carried out according to manufacturer's instructions.

PPIB = conditions: for relative expression of PPIB remaining after transfection: HEK293, 48 hour incubation, even at 10 nM, compared to negative control 10837 and UTC; for activity at sub-nano molar concentrations / target gene expression at about 0.1 nM: HEK293, with RISC-Free filler; for EC50: PPIB expression, HEK293, 48 hours after transfection, dose response with RISC-Free filler; for EC50 fold higher than that of the 25-mer dsRNA 10460: from the EC50 table of Example III; for PPIB gene silencing activity (in words): transfection assay as in Example I
Description: Positive and negative controls were also included. As shown and described in FIG. 4, construct prepared from single-stranded polynucleotide 10837 (SEQ ID NO: 6) was used as a negative control. […] This structure, denoted as construct 10460 (5′P-mCmUmCm[…]mAmAmAmA-3′, SEQ ID NO: 7) in this example, contains 2′-O-methyl modified bases on 4 of the outermost positions at both ends of the sequence.
as §1
Active RNAi construct stocks at 100 or 10 μM were used to make a 3 μM working dilution in RNA Buffer (1:33.333 dilution) by mixing 30 μl of a 10 μM stock+70 μl RNA Buffer. Diluted RNAi compound plates were prepared in a 96 well plate of 0.2 mL PCR tubes as follows:
a. 50 nM Condition (dilute RNA compound to 12× or to 600 nM in OptiMEM, Reduced Serum Medium, Invitrogen Corp., Carlsbad, Calif.): • i. Add 80 μl of OptiMEM to each well • ii. Add 20 μl of working stock RNAi compound (3 μM) to each well with OptiMEM
b. 25 nM Condition (dilute RNA to make 12× or to 300 nM in OptiMEM): • i. Add 50 μl of OptiMEM to each well • ii.
c. 10 nM Condition (dilute RNA compound to 12× or to 120 nM in OptiMEM): • i. Add 30 μl of OptiMEM to each well • ii.
A bulk amount of diluted RNAiMAX and LIPOFECTAMINE™ were made as follows:
a. 1,470 μl Opti-MEM+30 μl RNAiMAX
c. Combine RNAiMAX and Opti-MEM, Lipofectamine and Opti-MEM, mix gently.
Diluted RNAiMAX or LIPOFECTAMINE™ (35 μl each) was added to each 0.2 ml PCR well. Then, 35 μl of diluted RNAi compound from the RNA plate (above) was also added to each well. Each well contained enough for duplicates at a given dose. Each reaction mixture was gently mixed by pipetting up and down 3 times. The mixture was allowed to complex for at least 15 minutes at room temperature. Meanwhile, a suspension of cells at 1×10^5 cells/ml was prepared. After 15 minutes, 20 μl of complexed RNAi was added to each tissue-culture treated 96-well using a multi-channel pipettor. The prepared cell suspension was added to each reaction at a final volume of 1×10^4 cells (100 μl of cell suspension) and allowed to incubate for 48 hours at 37° C., 10% CO2.
Constructs 10460 (SEQ ID NO: 7, see above, a 25-bp double-stranded RNA with blunt ends) and 10167.2 (a 21-bp double-stranded RNA) were included as positive controls. Untransfected control (UTC) was included as a negative control. Transfections were performed as in Example I or according to the manufactures' recommendation. Each construct (except for the UTC) was transfected at a final concentration of about 50 nM, 25 nM, 10 nM, 5 nM, and 1 nM.
The RISC-Free filler is a commercially available control.

U.A.G.A.C.U.U.C.C.A.C.A.G.A.I.I.U. I.I.A.A.G.U.C.U.A [compound 11993]
MAP4K4 gene silencing activity (in words) (MAP4K4): ineffective

U.U.A.C.A.C.G.A.U.G.G.A.A.U.U.U. G.C.U.U.U.C.C.A.U.C.G.U.G.U.A.A. [compound 12003]
PPIB silencing potency compared with another construct (PPIB): less effective

UUUUUGGAACAGUCUUUCCACUGUUCCAAAAA [compound 10833]
relative expression of PPIB remaining after transfection (PPIB): dramatically decrease PPIB expression | activity at sub-nano molar concentrations (PPIB): remained partially active | target gene expression at about 0.1 nM (PPIB): at least negative control level | EC50 (PPIB): 0.599 nM | EC50 fold higher than that of the 25-mer dsRNA 10460 (PPIB): about 60 fold | PPIB gene silencing activity (in words) (PPIB): can inhibit PPIB expression

U.U.U.U.U.G.G.A.A.C.A.G.U.C.U.U. U.C.C.U.G.U.U.C.C.A.A.A.A.A [compound 11976]
PPIB silencing potency compared with another construct (PPIB): more potent that those designed based on the 10463 sequence (12003 and 12004)

SS: G.G.A.A.A.G.A.C.U.G.U.U.C.C.A.A. A.A.A AS: U.U.U.U.U.G.G.A.A.C.A.G.U. [compound 12000, reference compound]
PPIB gene silencing activity (in words) (PPIB): essentially inactive

SS: P.mC.mU.mC.mU.U.C.G.G.A.A.A.G. A.C.U.G.U.U.C.C.A.mA.mA.mA.mA AS: U.U.U.U.U.G.G.A.A.C.A.G.U.C.U.U. U.C.C.G.A.A.G.A.G [compound 10460, reference compound]
PPIB silencing potency compared with another construct (PPIB): more potent than the dsRNA construct 10463 | EC50 (PPIB): 0.014 nM

U.U.A.C.A.C.G.A.U.G.G.A.A.U.U.U. G.C.U.C.C.A.U.C.G.U.G.U.A.A [compound 12004]
PPIB silencing potency compared with another construct (PPIB): less effective

UUUUUGGAACAGUCUUUCCUGUUCCAAAAA [compound 10834]
relative expression of PPIB remaining after transfection (PPIB): dramatically decrease PPIB expression | activity at sub-nano molar concentrations (PPIB): remained partially active | target gene expression at about 0.1 nM (PPIB): at least negative control level | EC50 (PPIB): 1.54 nM | EC50 fold higher than that of the 25-mer dsRNA 10460 (PPIB): about 110 fold | PPIB gene silencing activity (in words) (PPIB): can inhibit PPIB expression

U.U.U.U.U.G.G.A.A.C.A.G.U.C.U.U. U.C.C.A.C.U.G.U.U.C.C.A.A.A.A.A [compound 11975]
PPIB silencing potency compared with another construct (PPIB): more potent that those designed based on the 10463 sequence (12003 and 12004)
